Experimental data taken from US6080396A, “Anthracycline compound derivative and pharmaceutical preparation containing the same” (Japan Science and Technology Corporation, priority 1995, dated 2000).
Structures can show the parent of a compound that is named as a salt.

Columns and labels:
[1] = system: mouse Colon 26 adenocarcinoma; assay: Antitumor activity on mouse Colon 26 adenocarcinoma (Application Example 1); assay type: in vivo; details: for Tumor-disappeared mice: i.v., every 4th day, three times
Procedure: (§1) When the volume of the tumor reached around 100 mm^3, the block copolymer-drug complex pharmaceutical preparation synthesized in Example 3, 4 or 5 or adriamycin hydrochloride was intravenously administered once a day every 4th day in total of three times (indicated by arrows in the drawings) to examine their antitumor effects. […] Each dose was determined as the amount of adriamycin of the peak 1 of the HPLC chromatogram. The antitumor effects of each drug were estimated based on the tumor growth curve, the number of mice in which the tumor disappeared and the chemotherapeutic index. The results are shown in Tables 1 and 2 and FIGS. 16 and 17.

[2] = LD50 for comparison of chemotherapeutic index (Table 2); details: mouse, in vivo, iv
Procedure: as §1

[3] = Drug concentration in blood plasma by radioactivity (Application Example 2); details: for % of dose/ml (blood plasma): i.v., total of adriamycin and adriamycin dimer, 14C
Procedure: Colon 26 adenocarcinoma cells were transplanted subcutaneously in the subaxillary region of each CDF1 female mouse, to which the block copolymer-drug complex pharmaceutical preparation prepared in Example 6 or 7 or ^14 C-labeled adriamycin hydrochloride was intravenously administered 12 days after transplanting. Each drug was used by diluting it in physiological saline prior to its use. After 15 minutes and 1, 4, 24 and 48 hours of the administration, blood samples were collected and various organs were excised. The drug concentrations in the blood plasma and each internal organ were determined by measuring radioactivity thereof using a liquid scintillation counter. In this test, both adriamycin and adriamycin dimer are labeled with ^14 C.

[4] = Drug concentration in tumor by radioactivity (Application Example 2); assay type: in vivo, CDF1 female mouse; details: mouse, iv, i.v., total of adriamycin and adriamycin dimer, 14C, read-out: % of dose/g (tumor)
[5] = Drug concentration in heart by radioactivity (Application Example 2); assay type: in vivo, CDF1 female mouse; details: mouse, iv, i.v., total of adriamycin and adriamycin dimer, 14C, read-out: % of dose/g (heart)
[6] = system: mouse Colon 26 adenocarcinoma; assay: Antitumor activity on mouse Colon 26 adenocarcinoma (Application Example 3); assay type: in vivo; details: i.v., every 4th day, three times
Procedure: In the case of the pharmaceutical preparation of Example 8, its effect obtained from the only first administration was also examined. […] Each dose was determined as the amount of adriamycin of the peak 1 of the HPLC chromatogram. The antitumor effects of each drug were estimated based on the tumor growth curve and the number of mice in which the tumor disappeared. The results are shown in Table 6 and FIGS. 25, 26 and 27.

In the case of `COc1cccc2c1C(=O)c1c(O)c3c(c(O)c1C2=O)C[C@@](O)(C(=O)CO)C[C@@H]3O[C@H]1C[C@H](N)[C@H](O)[C@H](C)O1` [Adriamycin hydrochloride, adriamycin hydrochloride], the Tumor-disappeared mice ([1]; 5 mg/kg) is reported as 0/5, the Tumor-disappeared mice ([1]; 10 mg/kg) is reported as 2/5 and the “Min T/C42 (minimum dose when T/C (%) becomes 42% or less on the 14th day after the initial administration)” value ([1]; 14th day after initial administration) is reported as 5.95. The “C. index (chemotherapeutic index: LD50/(Min T/C42))” value ([1]; LD50 /(Min T/C42)) was 2.52, the LD50 [2] was 15 mg/kg and the “% of dose/ml (blood plasma)” value ([3]; 15 minutes) was 0.47 % of dose/ml. For the same compound, the “% of dose/ml (blood plasma)” value ([3]; 1 hour) was 0.29 % of dose/ml, the “% of dose/ml (blood plasma)” value ([3]; 4 hours) was 0.36 % of dose/ml and the “% of dose/ml (blood plasma)” value ([3]; 24 hours) was 0.10 % of dose/ml. For the same compound, the “% of dose/ml (blood plasma)” value ([3]; 48 hours) was 0.07 % of dose/ml, the “drug retention in blood plasma” value ([3]; mouse, in vivo) was “quickly disappeared from blood plasma” and the tissue uptake at 0.25 h ([4]; 15 minutes) was 2.3 %ID/g. It also gave a tissue uptake at 1 h ([4]; 1 hour) of 2.4 %ID/g, a tissue uptake at 4 h ([4]; 4 hours) of 1.7 %ID/g and a tissue uptake at 24 h ([4]; 24 hours) of 1.3 %ID/g. For the same compound, the tissue uptake at 48 h ([4]; 48 hours) was 1 %ID/g, the tissue uptake at 0.25 h ([5]; 15 minutes) was 10.5 %ID/g and the tissue uptake at 1 h ([5]; 1 hour) was 7 %ID/g. For the same compound, the tissue uptake at 4 h ([5]; 4 hours) was 4.6 %ID/g, the tissue uptake at 24 h ([5]; 24 hours) was 1.1 %ID/g and the tissue uptake at 48 h ([5]; 48 hours) was 0.5 %ID/g. For the same compound, the Tumor-disappeared mice ([6]; 5 mg/kg) was 0/5 and the Tumor-disappeared mice ([6]; 10 mg/kg) was 2/5.
